The source of these data is ChEMBL document CHEMBL1201862, “PubChem BioAssay data set” (2004).

Common to all, as to assay: NCI anticancer screen, dose series, 48 h
The subject of test [1] is CCRF-CEM.
Test [2] concerns HCT-15.
Test [3] has as its system HL-60.
Test [4] has as its system M14.
For test [5], the system named is MOLT-4.
Test [6] relates to Malme-3M.
In test [7] the test system is NCI-H23.
Test [8] has as its system NCI-H460.
Test [9] deals with RXF 393.
The test system of test [10] is SF-268.
The test system of test [11] is SF-539.
The test system of test [12] is SK-MEL-2.
For test [13], the system named is SW-620.
Test [14] relates to UACC-257.
Test [15] has as its system UACC-62.
Test [16] relates to SK-OV-3.
For test [17], the system named is U-251.

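Protocol summary: plate cells (96-well), add compound at 5 concentrations, incubate 48 h, interpolate endpoints linearly. At the GI50, growth is halved.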 Active and inactive are the calls of the source. Cut-off read from the data, not from the text of the source: active = GI50 up to about 1.1 µM and inactive = higher.

In the case of `CCC1C(=O)OCc2c1cc1n(c2=O)Cc2ccccc2-1` (stereo not given), the GI50 was > 100 µM (inactive) in [1]; more than 100 µM in test [2]; > 100 µM (inactive) in test [3]; > 100 µM (inactive) in test [4]; > 100 µM (inactive) in [5]; > 100 µM (inactive) in test [6]. The GI50 in test [7], in [8], in test [9], in [10], in test [11] and in [12] was > 100 µM (inactive) throughout. In addition, the GI50 in [13], in test [14] and in test [15] was > 100 µM (inactive) throughout.

As to `COc1ccc(C2C(Cl)C(=O)N2n2cnc3ccccc3c2=O)cc1` (stereo not given), the GI50 in test [1] was > 10 µM (inactive); in [2] it was more than 100 µM; in test [3], 59.2 µM (inactive); in [4], 28.4 µM (inactive); in test [5], 51.3 µM (inactive); in test [6], > 100 µM (inactive). Besides, the GI50 in test [7] is 94 µM (inactive); in test [8], 70.5 µM (inactive); in test [9], 30.8 µM (inactive); in test [10], 87.9 µM (inactive); in test [12] it was > 100 µM (inactive); in [16] it was > 100 µM (inactive). Also, the GI50 in test [13], in test [17], in test [14] and in test [15] was > 100 µM (inactive) in each case.

`COc1ccc(OC)c(CCc2cc(OC)c(OC)cc2C)c1`: the GI50 in [1] was 11 µM (inactive); in test [4] it was 4.26 µM (inactive); in test [5] it was 12.1 µM (inactive); in test [6], 4.2 µM (inactive); in test [7] it was 32.1 µM (inactive); in test [8], 34.2 µM (inactive). The GI50 in test [10] was 42 µM (inactive); in test [12] it was 6.68 µM (inactive); in test [16], 23 µM (inactive); in [13] it was 5.6 µM (inactive); in test [17], 43.4 µM (inactive); in test [14] it was 26.7 µM (inactive). In test [15], the GI50 was 25.2 µM (inactive).

As to `COC(=O)C(=O)C(/C(=N/N)C(=O)Nc1ccccc1C(N)=O)c1nc2ccc([N+](=O)[O-])cc2nc1O` (stereo not given), the GI50 is > 100 µM (inactive) in [1]; more than 100 µM in test [2]; > 100 µM (inactive) in test [3]; > 100 µM (inactive) in test [4]; > 100 µM (inactive) in test [5]; > 100 µM (inactive) in test [6]. Also, the GI50 in [7], in [8], in [10], in [11], in [12] and in test [13] was > 100 µM (inactive) throughout. Further, the GI50 in test [17], in test [14] and in [15] was > 100 µM (inactive) in each case.

Consider `CCOc1ccccc1NC(=O)CC1C(=O)Nc2ccccc2[S+]1[O-]` (stereo not given), for which the GI50 in test [1] is 39.8 µM (inactive); in [2] it was more than 100 µM; in test [3], 26.8 µM (inactive); in test [4] it was 77.1 µM (inactive); in test [5], 10.5 µM (inactive); in test [6], > 100 µM (inactive). Also, the GI50 in test [7] was > 100 µM (inactive); in [8], 80 µM (inactive); in test [9], 50 µM (inactive); in test [10] it was > 100 µM (inactive); in test [11], > 100 µM (inactive); in [12], > 100 µM (inactive). In addition, the GI50 in test [13] was > 100 µM (inactive); in test [17] it was 67.9 µM (inactive); in [14], > 100 µM (inactive); in test [15], 26.3 µM (inactive).

Turning to `O=C1CCc2ccc(O)c(c2)Oc2ccc(cc2)[C@@H]2O[C@@H]2CO1`, the GI50 is 76 µM (inactive) in test [1]; 37.9 µM (inactive) in test [3]; 41.6 µM (inactive) in test [4]; 23.9 µM (inactive) in test [5]; 22.2 µM (inactive) in test [6]; 38.4 µM (inactive) in [7]. Further, the GI50 was > 10 µM (inactive) in test [10]; 70.6 µM (inactive) in [11]; 34 µM (inactive) in test [12]; 27 µM (inactive) in test [16]; 53.6 µM (inactive) in test [13]; 67.8 µM (inactive) in test [17]. Besides, the GI50 in test [14] was 48.4 µM (inactive); in test [15] it was 30.5 µM (inactive).

As to `CCCCCCCCCCCC[N+]12CC[N+](C)(CC1)CC2`, the GI50 in test [1] was 18.8 µM (inactive); in [3] it was 16.4 µM (inactive); in test [4] it was 29.6 µM (inactive); in [5] it was 27.9 µM (inactive); in [6] it was 46.9 µM (inactive); in test [7], 20.9 µM (inactive). The GI50 was 6.38 µM (inactive) in test [8]; 1.31 µM (inactive) in test [9]; 18.7 µM (inactive) in test [10]; 39.4 µM (inactive) in [11]; 77.8 µM (inactive) in test [12]; > 100 µM (inactive) in test [16]. Further, the GI50 in [13] was 44.3 µM (inactive); in test [17] it was 15.6 µM (inactive); in [14], > 100 µM (inactive); in test [15], 22.6 µM (inactive).

In the case of `CC(=O)c1c(C)[n+]([O-])c2cc(C)c(C)cc2[n+]1[O-]`, the GI50 was > 100 µM (inactive) in test [1]; more than 100 µM in test [2]; > 100 µM (inactive) in test [3]; > 100 µM (inactive) in [4]; > 100 µM (inactive) in test [5]; > 100 µM (inactive) in [6]. Moreover, the GI50 in test [7], in test [8], in [10], in [11], in test [12] and in test [16] was > 100 µM (inactive) each time. For the same compound, the GI50 in test [13], in test [17], in test [14] and in test [15] was > 100 µM (inactive) throughout.

Take `Nc1nc2c(ncn2CCOC(c2ccccc2)P(=O)(O)O)c(=O)[nH]1` (stereo not given): the GI50 was more than 100 µM in test [2]; > 100 µM (inactive) in [3]; > 100 µM (inactive) in [6]; > 100 µM (inactive) in test [7]; > 100 µM (inactive) in [8]; > 100 µM (inactive) in test [9]. The GI50 was > 100 µM (inactive) in [10]; > 100 µM (inactive) in test [11]; > 100 µM (inactive) in [12]; > 100 µM (inactive) in test [16]; > 100 µM (inactive) in test [13]; 1.09 µM (active) in [17]. Besides, the GI50 in test [14] and in test [15] was > 100 µM (inactive) throughout.

For the compound `O=c1[nH]c2nc3ccccc3c(=O)n2nc1Cc1ccccc1`, the GI50 in test [1] was > 100 µM (inactive); in test [2] it was more than 100 µM; in test [4], > 100 µM (inactive); in test [5], > 100 µM (inactive); in [6], > 100 µM (inactive); in [7] it was > 100 µM (inactive). The GI50 is > 100 µM (inactive) in [8]; > 100 µM (inactive) in [10]; > 100 µM (inactive) in test [11]; > 100 µM (inactive) in test [12]; 84.7 µM (inactive) in test [16]; > 100 µM (inactive) in test [13]. Further, the GI50 in [17], in [14] and in test [15] was > 100 µM (inactive) throughout.

As to `NC(=O)NNC(=O)CCn1[nH]c(=O)c(Cl)c(Cl)c1=O`, the GI50 in [1] was > 100 µM (inactive); in [2], more than 100 µM; in [3], > 100 µM (inactive); in test [4], > 100 µM (inactive); in [6] it was > 100 µM (inactive); in [7] it was > 100 µM (inactive). The GI50 in [8], in test [9], in [10], in test [12], in test [16] and in [13] was > 100 µM (inactive) throughout. In addition, the GI50 in [17], in test [14] and in [15] was > 100 µM (inactive) each time.

For `C/C(=C\C(C)COCc1ccccc1)[C@H](COCc1ccccc1)OCc1ccccc1` (stereo not given in full), the GI50 in test [1] is 68.1 µM (inactive); in test [2], more than 100 µM; in [3], > 10 µM (inactive); in test [4], > 100 µM (inactive); in test [5] it was 46.9 µM (inactive); in test [7], 48 µM (inactive). The GI50 in test [8] is > 100 µM (inactive); in [9], 26.9 µM (inactive); in [10], 76.2 µM (inactive); in test [11] it was > 100 µM (inactive); in test [12], > 100 µM (inactive); in [16], > 100 µM (inactive). In addition, the GI50 in test [13], in test [17] and in test [15] was > 100 µM (inactive) throughout.

Regarding `N#Cc1cccc(C2SCc3nc4ccccc4n32)c1` (stereo not given), the GI50 in test [1] is > 100 µM (inactive); in test [3], 62.8 µM (inactive); in [5], 38.7 µM (inactive); in [6], > 100 µM (inactive); in test [7], 74.8 µM (inactive); in test [8] it was > 100 µM (inactive). Also, the GI50 in test [9] is 80.2 µM (inactive); in test [10] it was > 100 µM (inactive); in test [11] it was > 100 µM (inactive); in test [12], > 100 µM (inactive); in test [16], > 100 µM (inactive); in test [13] it was > 100 µM (inactive). In addition, the GI50 was > 100 µM (inactive) in [17], 80 µM (inactive) in test [14] and 37.2 µM (inactive) in test [15].
